# Test results from PubChem BioAssay (NCI).
#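 Exposure lasted 48 hours, with cells grown in 96-well plates and compounds tested at five concentrations. The concentration for full growth arrest is given as TGI.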
# Assays:
# Assay in all cases: NCI tumour cell line growth inhibition, 48 h
# A498 renal = tested on: A498 renal
# A549 NSCLC = tested on: A549 NSCLC
# CAKI-1 renal = tested on: CAKI-1 renal
# CCRF-CEM leukemia = tested on: CCRF-CEM leukemia
# COLO 205 colon = tested on: COLO 205 colon
# DLD-1 colon = tested on: DLD-1 colon
# DMS 273 small cell lung = tested on: DMS 273 small cell lung
# EKVX NSCLC = tested on: EKVX NSCLC
# HCC-2998 colon = tested on: HCC-2998 colon
# HCT-116 colon = tested on: HCT-116 colon
# HCT-15 colon = tested on: HCT-15 colon
# HL-60(TB) leukemia = tested on: HL-60(TB) leukemia
# HOP-18 NSCLC = tested on: HOP-18 NSCLC
# HOP-62 NSCLC = tested on: HOP-62 NSCLC
# HOP-92 NSCLC = tested on: HOP-92 NSCLC
# HT29 colon = tested on: HT29 colon
# IGROV1 ovarian = tested on: IGROV1 ovarian
# K-562 leukemia = tested on: K-562 leukemia
# KM12 colon = tested on: KM12 colon
# KM20L2 colon = tested on: KM20L2 colon
# LOX IMVI melanoma = tested on: LOX IMVI melanoma
# M19-MEL melanoma = tested on: M19-MEL melanoma
# MALME-3M melanoma = tested on: MALME-3M melanoma
# MCF7 breast = tested on: MCF7 breast
# NCI-H226 lung = tested on: NCI-H226 lung
# NCI-H23 lung = tested on: NCI-H23 lung
# NCI-H460 lung = tested on: NCI-H460 lung
# NCI-H522 lung = tested on: NCI-H522 lung
# NCI/ADR-RES ovarian = tested on: NCI/ADR-RES ovarian
# OVCAR-3 ovarian = tested on: OVCAR-3 ovarian
# OVCAR-4 ovarian = tested on: OVCAR-4 ovarian
# OVCAR-5 ovarian = tested on: OVCAR-5 ovarian
# OVCAR-8 ovarian = tested on: OVCAR-8 ovarian
# P388 leukemia = tested on: P388 leukemia
# P388/ADR leukemia = tested on: P388/ADR leukemia
# RPMI-8226 leukemia = tested on: RPMI-8226 leukemia
# RXF 393 renal = tested on: RXF 393 renal
# SF-268 CNS = tested on: SF-268 CNS
# SF-295 CNS = tested on: SF-295 CNS
# SF-539 CNS = tested on: SF-539 CNS
# SK-MEL-2 melanoma = tested on: SK-MEL-2 melanoma
# SK-MEL-28 melanoma = tested on: SK-MEL-28 melanoma
# SK-MEL-5 melanoma = tested on: SK-MEL-5 melanoma
# SK-OV-3 ovarian = tested on: SK-OV-3 ovarian
# SN12C renal = tested on: SN12C renal
# SN12K1 renal = tested on: SN12K1 renal
# SNB-19 CNS = tested on: SNB-19 CNS
# SNB-75 CNS = tested on: SNB-75 CNS
# SNB-78 CNS = tested on: SNB-78 CNS
# SW-620 colon = tested on: SW-620 colon
# U251 CNS = tested on: U251 CNS
# UACC-257 melanoma = tested on: UACC-257 melanoma
# UACC-62 melanoma = tested on: UACC-62 melanoma
# UO-31 renal = tested on: UO-31 renal
# XF 498 CNS = tested on: XF 498 CNS
smiles,measurement,setting,value
CCCCC1(C2c3ccccc3Oc3ccccc32)C(=O)N(c2ccccc2)N(c2ccccc2)C1=O,TGI,A498 renal,> 100 µM
same,TGI,A549 NSCLC,> 100 µM
same,TGI,CAKI-1 renal,> 29.6 µM
same,TGI,CCRF-CEM leukemia,> 100 µM
same,TGI,COLO 205 colon,> 100 µM
same,TGI,DLD-1 colon,> 100 µM
same,TGI,DMS 273 small cell lung,> 100 µM
same,TGI,EKVX NSCLC,> 100 µM
same,TGI,HCC-2998 colon,> 94.5 µM
same,TGI,HCT-116 colon,> 100 µM
same,TGI,HCT-15 colon,> 100 µM
same,TGI,HL-60(TB) leukemia,> 100 µM
same,TGI,HOP-18 NSCLC,> 100 µM
same,TGI,HOP-62 NSCLC,> 100 µM
same,TGI,HOP-92 NSCLC,> 100 µM
same,TGI,HT29 colon,> 100 µM
same,TGI,IGROV1 ovarian,> 100 µM
same,TGI,K-562 leukemia,> 100 µM
same,TGI,KM12 colon,> 100 µM
same,TGI,KM20L2 colon,> 100 µM
same,TGI,LOX IMVI melanoma,> 100 µM
same,TGI,M19-MEL melanoma,> 100 µM
same,TGI,MALME-3M melanoma,> 100 µM
same,TGI,MCF7 breast,> 100 µM
same,TGI,NCI-H226 lung,> 100 µM
same,TGI,NCI-H23 lung,> 100 µM
same,TGI,NCI-H460 lung,> 100 µM
same,TGI,NCI-H522 lung,13.1 µM
same,TGI,NCI/ADR-RES ovarian,> 100 µM
same,TGI,OVCAR-3 ovarian,> 100 µM
same,TGI,OVCAR-4 ovarian,> 100 µM
same,TGI,OVCAR-5 ovarian,> 100 µM
same,TGI,OVCAR-8 ovarian,> 100 µM
same,TGI,P388 leukemia,45.2 µM
same,TGI,P388/ADR leukemia,> 100 µM
same,TGI,RPMI-8226 leukemia,> 100 µM
same,TGI,RXF 393 renal,> 100 µM
same,TGI,SF-268 CNS,> 100 µM
same,TGI,SF-295 CNS,> 100 µM
same,TGI,SF-539 CNS,> 100 µM
same,TGI,SK-MEL-2 melanoma,> 100 µM
same,TGI,SK-MEL-28 melanoma,> 100 µM
same,TGI,SK-MEL-5 melanoma,> 100 µM
same,TGI,SK-OV-3 ovarian,> 100 µM
same,TGI,SN12C renal,> 100 µM
same,TGI,SN12K1 renal,> 100 µM
same,TGI,SNB-19 CNS,> 100 µM
same,TGI,SNB-75 CNS,> 100 µM
same,TGI,SNB-78 CNS,> 88.5 µM
same,TGI,SW-620 colon,> 100 µM
same,TGI,U251 CNS,> 100 µM
same,TGI,UACC-257 melanoma,99 µM
same,TGI,UACC-62 melanoma,> 100 µM
same,TGI,UO-31 renal,> 100 µM
same,TGI,XF 498 CNS,> 100 µM
